For this test, the target named is T1, HDAC6 (Homo sapiens, UniProt Q9UBN7).
T1 sequence (Q9UBN7 1-1215): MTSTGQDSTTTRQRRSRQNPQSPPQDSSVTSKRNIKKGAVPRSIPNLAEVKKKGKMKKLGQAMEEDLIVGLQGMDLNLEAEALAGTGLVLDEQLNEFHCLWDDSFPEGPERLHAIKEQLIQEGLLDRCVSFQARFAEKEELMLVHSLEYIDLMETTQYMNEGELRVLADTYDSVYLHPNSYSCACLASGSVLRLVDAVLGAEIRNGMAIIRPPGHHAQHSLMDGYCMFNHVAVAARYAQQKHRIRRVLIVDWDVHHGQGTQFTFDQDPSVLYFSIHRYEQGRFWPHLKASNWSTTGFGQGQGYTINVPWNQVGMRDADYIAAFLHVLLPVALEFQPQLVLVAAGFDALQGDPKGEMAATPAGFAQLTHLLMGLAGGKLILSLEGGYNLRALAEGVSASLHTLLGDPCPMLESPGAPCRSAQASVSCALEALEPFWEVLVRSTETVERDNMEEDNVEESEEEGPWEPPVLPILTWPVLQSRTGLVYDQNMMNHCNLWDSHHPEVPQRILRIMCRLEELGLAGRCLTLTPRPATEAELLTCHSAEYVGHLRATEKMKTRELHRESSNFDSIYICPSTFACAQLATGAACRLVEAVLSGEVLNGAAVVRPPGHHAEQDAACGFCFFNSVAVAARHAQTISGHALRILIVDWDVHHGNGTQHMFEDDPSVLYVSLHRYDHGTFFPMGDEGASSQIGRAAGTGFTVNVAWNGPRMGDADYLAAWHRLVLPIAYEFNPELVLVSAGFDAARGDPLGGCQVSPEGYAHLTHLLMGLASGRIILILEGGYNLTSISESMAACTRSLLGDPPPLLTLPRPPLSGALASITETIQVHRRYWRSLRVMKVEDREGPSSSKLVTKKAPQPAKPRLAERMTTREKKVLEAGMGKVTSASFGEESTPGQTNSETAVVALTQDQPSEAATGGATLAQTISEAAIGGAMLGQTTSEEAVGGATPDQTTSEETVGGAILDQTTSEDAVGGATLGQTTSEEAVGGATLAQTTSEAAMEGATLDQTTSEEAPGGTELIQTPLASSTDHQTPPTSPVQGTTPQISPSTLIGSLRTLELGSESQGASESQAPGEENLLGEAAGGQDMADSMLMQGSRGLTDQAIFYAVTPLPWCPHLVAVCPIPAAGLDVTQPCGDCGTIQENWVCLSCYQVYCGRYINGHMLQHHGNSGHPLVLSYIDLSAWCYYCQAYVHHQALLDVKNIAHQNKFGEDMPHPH
In words: Simple Western immunoassay, HDAC6 levels in MM.1S cell lysates. Type of test: cell-based. Conditions: MM.1S cells, 10 μM; for reduction of HDAC6 protein levels: 24 h. Set-up: endogenous in cells; host or cells: MM.1S. As for the experimental part: Figure 3 Initial degradation screening of HDAC1 and 6 by DCAF11‐recruiting PROTACs by Simple Western™ immunoassay analysis of MM.1S cell lysates. MM.1S cells were treated with the indicated compound (10 μM) or vehicle (DMSO) for 24 h. […] Bottom: Representative images from a total of n=3 biological replicates, labeled with spacer type; w/o: without spacer.
2. Biological Experiments […]
The human multiple myeloma cell line MM.1S (CRL-2974) was obtained from American Type Culture Collection (ATCC, Manassas, VA, USA). The semi-adherent cells were cultivated in RPMI 1640 medium (Catalog#21875-034, Gibco, ThermoFisher Scientific Inc., Waltham, MA, USA) supplemented with 10% FBS (PAN Biotech GmbH; Aidenbach, Germany), 100 IU/mL penicil lin, 0.1 mg/mL streptomycin (PAN Biotech GmbH) and 1 mM sodium pyruvate (ThermoFisher Scientific Inc.). […]
(PAN Biotech GmbH). All cells were cultured at 37 °C in a 5% CO2 atmosphere. Incubation times, as part of assay protocols, were performed under these conditions as well. […]
2.2. Simple Western™ Immunoassay
For the cell lysates, MM.1S (0.5 × 10^6 cells/mL) or U-87MG (0.18 × 10^6 cells/mL) cells were seeded and incubated with the indicated concentration of compound or vehicle (DMSO) for the given time. […]
SDS, 0.5% deoxycholate; Catalog# FNN0011, Thermo Fisher Scientific Inc., Waltham, MA, USA) with addition of Halt Protease Inhibitor Cocktail (100×) (Catalog# 78429, Life Technologies GmbH, Carlsbad, CA, USA) and phenylmethanesulfonyl fluoride (Catalog# 10837091001, Sigma-Aldrich, St.
Louis, MO, USA) according to manufacturer´s instructions. Protein content was determined by Pierce™ BCA Protein Assay Kit (Catalog# 23225, Thermo Fisher Scientific Inc.) according to manufacturer´s guidelines. […]
Fluorescence Separation 8x25 Capillary Cartridges (Catalog# SM-FL004-1, Protein Simple, Bio-Techne, Minneapolis, MN, USA) were used for separation and the Anti-Mouse Detection Module (Catalog# DM-002, Protein Simple) was used for detection with addition of 20x Anti-Rabbit HRP […]
Conjugate (Catalog# 043-426, Protein Simple) according to manufacturer´s instructions. […] Evaluation and quantification was performed with the compass software (6.2.0, Protein Simple). […]
For the cell viability assay the automated pipetting robot system ASSIST PLUS (Model# 4505, Integra Biosciences, Bibertal, Germany) was used. […] The toxicity of compounds was determined after 72 h using the CellTiter-Glo 2.0 Cell Viability Assay (Promega, Madison, WI, USA, #G9242) according to the manufacturer´s protocol. Subsequently, the luminescence was measured using a Tecan Spark (Tecan Group AG, Maennedorf, Swiss) and the half maximal effective concentration (EC50) was determined by plotting dose response curves and nonlinear regression with GraphPad Prism (GraphPad Software, San […]

With `O=CN(CCCCCCCCCCCC(=O)Nc1ccc(C(=O)NCCCCCCC(=O)NO)cc1)C(C(=O)NCc1ccccc1)c1ccc(Cl)c(Cl)c1` (stereo not shown) [Compound 1j-nc], where the note is “14 h”, the “effect on HDAC6 protein levels” value was “not able to affect the protein levels of HDAC1 and 6”.

Turning to `O=C(CCCCCCNC(=O)c1ccc(NC(=O)CCCCCCCCCCCN(C(=O)CCl)C(C(=O)NCc2ccccc2)c2ccc(Cl)c(Cl)c2)cc1)NO` (stereo not shown) [Compound 1j], the “reduction of HDAC6 protein levels” value is listed as “significant reduction of HDAC6 protein levels”. Also, the “time dependent degradation of HDAC6” value (after 6 h) is given as “significant degradation”.

Regarding `O=C(CCCCCCNC(=O)c1ccc(N(C(=O)CCl)C(C(=O)NCc2ccccc2)c2ccc(Cl)c(Cl)c2)cc1)NO` (stereo not shown) [Compound 2], the “reduction of HDAC6 protein levels” value was “significant reduction of HDAC6 protein levels”.

(Values after PMC12091851, “Replacing a Cereblon Ligand by a DDB1 and CUL4 Associated Factor 11 (DCAF11) Recruiter Converts a Selective Histone Deacetylase 6 PROTAC into a Pan‐Degrader” (Chemmedchem, 2025).)
